Experimental data as given in publication PMC4769088, “Antifungal Activity and Action Mechanism of Histatin 5-Halocidin Hybrid Peptides against Candida ssp” (PLoS ONE, 2016).
Where a SMILES comes first, the peptide text is derived from it. Bridges are numbered along the chain shown (N, C = ends). Roman numbers before positions name the chains, in order. Where no end group is shown, it is not given here.

Experiments:
[1] = tested on: Candida cells; experiment: Candidacidal activity in energy depleted (azide) cells; format: cell-based, Candida albicans; details: cells pre-incubated for 60 min in 5 mM NaN3 at 30°C, colony count assay
Method: (§1) The candidacidal activities of the peptides were tested by using standard microdilution plate assays, radial diffusion assays and broth dilution assay slightly modified from the procedure recommended by the National Committee for Clinical Laboratory Standards. For the candidacidal assays, C. albicans cells were grown in YPD medium and washed twice with 10 mM sodium phosphate buffer (NaPB; Na2HPO4, NaH2PO4, pH 7.4). The cells (1 x 10^6) were then mixed with different concentrations of peptides and incubated at 30°C with constant shaking for 60 min. For energy depletion experiments, cells were pre-incubated with 10 mM NaPB containing 5 mM NaN3 at 30°C for 60 min before the addition of peptides. The cell suspensions were diluted in 10 mM NaPB and aliquots of 500 cells were spread onto YPD agar plates then incubated for 24 h at 30°C to visualize the surviving colonies. Cell survival was expressed as a percentage of that for the control, and the loss of viability was calculated as [1 x (number of colonies from peptide-treated cells/number of colonies from control cells)] x 100. Candidacidal assays were performed in triplicate. For the radial diffusion assay, C. albicans cells were grown in YPD medium overnight and washed twice with 10 mM NaPB. Washed yeast-phase C. albicans cells (1 x 10^6 CFU) were trapped in thin underlay gels containing 9 mM sodium phosphate, 1 mM sodium citrate buffer, 1% (wt/vol) agarose (A6013; Sigma), and 0.3 mg of Sabouraud dextrose broth (Difco)/ml. After incubation at 37°C for 3 h, a 10 ml overlay gel of 1% agarose and 6% Sabouraud dextrose broth was poured on the underlay gel and then the plates were incubated overnight at 37°C. The clear-zone diameters were measured to the nearest 0.1 mm and graphed against the peptide concentration. Zone diameters were expressed in units (0.1 mm = 1 unit). For the broth dilution assay, the Candida strains were cultured in LYM broth for 18 h at 30°C. The numbers of yeasts were counted using a hemocytometer. Stock peptide solutions were prepared to a concentration of 320 μg/ml in distilled water, and were then serially diluted twofold, to 5 μg/ml. 100 μl aliquots of the diluted culture media containing candida cells (1 x 10^3) were dispensed into the wells of 96-well polypropylene microtiter plates (Costar 3879, Corning, NY), to which peptide solution (11 μl) was then added. In the experiments conducted to assess the candidacidal activity of peptides in the presence of salt, we used LYM supplemented with 150 mM NaCl for the culture medium, which was mixed with the peptide solution. The antifungal activities were evaluated after 24 h of incubation at 30°C by the observation of visible turbidity the wells. The MIC values were expressed as intervals (a–b), with a representing the highest tested concentration at which microbes continue to grow, and b representing the lowest concentration at which growth inhibition could be detected.
To confirm the killing effect of the peptides, washed Candida cells (1 × 10^7 cells/ml) were treated with the peptides and propidium iodide (PI) was added. For energy depletion experiments, cells were pre-incubated with 10 mM NaPB containing 5 mM NaN3 at 30°C for 60 min before the addition of peptides. Propidium iodide (PI) uptake was measured using a multi reader and calculated with the formula [propidium iodide (PI) uptake value of peptide-treated cells—propidium iodide (PI) value of control cells]
Fig 6 The effects of azide on killing activity of peptides. […]

[2] = tested on: Candida albicans cells; experiment: Confocal microscopy localization and FITC-peptide/PI uptake assay; format: cell-based; details: FITC-peptides and propidium iodide uptake assay, measured for 60 min
Method: To confirm the killing effect of the peptides, washed Candida cells (1 × 10^7 cells/ml) were treated with the peptides and propidium iodide (PI) was added. For energy depletion experiments, cells were pre-incubated with 10 mM NaPB containing 5 mM NaN3 at 30°C for 60 min before the addition of peptides. Propidium iodide (PI) uptake was measured using a multi reader and calculated with the formula [propidium iodide (PI) uptake value of peptide-treated cells—propidium iodide (PI) value of control cells] C. albicans cells were attached to concanavalin A (Sigma, 1 mg/ml solution in water) coated coverglass in chambered wells (Lab-Tek II). Cells (1 x 10^6) were deposited in each well, and 1 ml of 10 mM NaPB containing 5 μg PI (Sigma) and FITC-labeled peptides (Final concentration 10 μg/ml) were added to the chamber. Confocal images were acquired with an Olympus Fluoview FV10i-DOC (Olympus, Tokyo, Japan). ImageJ software was used for image acquisition and analysis.  Fig 5 Localizations of FITC-peptides in Candida albicans cells. C. albicans cells were incubated for 10 minutes with 10 μg/ml of FITC-peptides and visualized by confocal microscopy. […] FITC-peptides and PI uptake was measured for 60 min in Perkin Elmer 2030 reader (VictorX 3).

[3] = tested on: Candida albicans; format: cell-based; details: for reduction of cell viability: 1 μg/ml peptide, in 1 hour, colony count assay
Method: as §1, with “Stock peptide solutions were prepared to a concentration of 320 μg/ml in distilled water, and were then serially diluted twofold, to 5 μg/ml. 100 μl aliquots of the diluted culture media containing candida cells (1 x 10^3) were dispensed into the wells of 96-well polypropylene microtiter plates (Costar 3879, Corning, NY), to which peptide solution (11 μl) was then added. In the experiments conducted to assess the candidacidal activity of peptides in the presence of salt, we used LYM supplemented with 150 mM NaCl for the culture medium, which was mixed with the peptide solution.” left out
Fig 4 Killing kinetics of Hst5, P113, di-18Hc, hybrid peptides against Candida albicans. Killing kinetics of peptides against C. albicans was measured by colony count assay. Candida cells were treated with a different concentration of peptides at a determined time. […] Killing percent was calculated with the following equation: Killing % = (number of control cell—number of treated cell)/control cell × 100.

Molecule	antimicrobial activities in energy depleted cells [1]	FITC intensity in Candida cells [2]	reduction of cell viability [3] [%]	killing kinetics (time) ([3]; membrane-attacking peptide with fast kinetics) [s]
C[C@H](NC(=O)[C@H](Cc1c[nH]cn1)NC(=O)[C@H](CO)NC(=O)[C@@H](N)CC(=O)O)C(=O)N[C@@H](CCCCN)C(=O)N[C@@H](CCCNC(=N)N)C(=O)N[C@@H](Cc1c[nH]cn1)C(=O)N[C@@H](Cc1c[nH]cn1)C(=O)NCC(=O)N[C@@H](Cc1ccc(O)cc1)C(=O)N[C@@H](CCCCN)C(=O)N[C@@H](CCCNC(=N)N)C(=O)N[C@@H](CCCCN)C(=O)N[C@@H](Cc1ccccc1)C(=O)N[C@@H](Cc1c[nH]cn1)C(=O)N[C@@H](CCC(=O)O)C(=O)N[C@@H](CCCCN)C(=O)N[C@@H](Cc1c[nH]cn1)C(=O)N[C@@H](Cc1c[nH]cn1)C(=O)N[C@@H](CO)C(=O)N[C@@H](Cc1c[nH]cn1)C(=O)N[C@@H](CCCNC(=N)N)C(=O)NCC(=O)N[C@@H](Cc1ccc(O)cc1)C(=O)O [Hst 5, Histatin 5]	significantly reduced	increased in a time dependent manner	–	–
CC(C)C[C@H](NC(=O)CNC(=O)[C@H](Cc1c[nH]cn1)NC(=O)[C@H](Cc1c[nH]cn1)NC(=O)[C@H](CC(C)C)NC(=O)[C@H](CC(C)C)NC(=O)[C@H](C)NC(=O)[C@H](CC(N)=O)NC(=O)[C@H](CC(C)C)NC(=O)[C@@H](N)Cc1c[nH]c2ccccc12)C(=O)N[C@@H](CC(N)=O)C(=O)N[C@@H](CSSC[C@H](NC(=O)[C@H](CC(N)=O)NC(=O)[C@H](CC(C)C)NC(=O)CNC(=O)[C@H](Cc1c[nH]cn1)NC(=O)[C@H](Cc1c[nH]cn1)NC(=O)[C@H](CC(C)C)NC(=O)[C@H](CC(C)C)NC(=O)[C@H](C)NC(=O)[C@H](CC(N)=O)NC(=O)[C@H](CC(C)C)NC(=O)[C@@H](N)Cc1c[nH]c2ccccc12)C(=O)N[C@@H](C)C(=O)N[C@@H](CCCCN)C(=O)NCC(=O)N[C@H](C(=O)N[C@@H](CC(C)C)C(=O)N[C@@H](C)C(N)=O)C(C)C)C(=O)N[C@@H](C)C(=O)N[C@@H](CCCCN)C(=O)NCC(=O)N[C@H](C(=O)N[C@@H](CC(C)C)C(=O)N[C@@H](C)C(N)=O)C(C)C [di-18Hc, reference compound] (I: H-WLNALLHHGLNCAKGVLA-NH2 / II: H-WLNALLHHGLNCAKGVLA-NH2; disulfide I:12-II:12 (inferred); N-terminus assumed)	not inhibited	–	99	≤ 30
CC(C)C[C@H](NC(=O)CNC(=O)[C@H](Cc1c[nH]cn1)NC(=O)[C@H](Cc1c[nH]cn1)NC(=O)[C@H](CCCNC(=N)N)NC(=O)[C@H](CCCCN)NC(=O)[C@H](C)N)C(=O)N[C@@H](CC(N)=O)C(=O)N[C@@H](CSSC[C@H](NC(=O)[C@H](CC(N)=O)NC(=O)[C@H](CC(C)C)NC(=O)CNC(=O)[C@H](Cc1c[nH]cn1)NC(=O)[C@H](Cc1c[nH]cn1)NC(=O)[C@H](CCCNC(=N)N)NC(=O)[C@H](CCCCN)NC(=O)[C@H](C)N)C(=O)N[C@@H](C)C(=O)N[C@@H](CCCCN)C(=O)N[C@@H](Cc1ccccc1)C(=O)N[C@@H](Cc1c[nH]cn1)C(N)=O)C(=O)N[C@@H](C)C(=O)N[C@@H](CCCCN)C(=O)N[C@@H](Cc1ccccc1)C(=O)N[C@@H](Cc1c[nH]cn1)C(N)=O [di-PH2] (I: H-AKRHHGLNCAKFH-NH2 / II: H-AKRHHGLNCAKFH-NH2; disulfide I:9-II:9 (inferred); N-terminus assumed)	significantly reduced	increased in a time dependent manner	99	–
CC(C)C[C@H](NC(=O)[C@@H](N)Cc1c[nH]c2ccccc12)C(=O)N[C@@H](CC(N)=O)C(=O)N[C@@H](C)C(=O)N[C@@H](CCCCN)C(=O)N[C@@H](CCCNC(=N)N)C(=O)N[C@@H](Cc1c[nH]cn1)C(=O)N[C@@H](Cc1c[nH]cn1)C(=O)NCC(=O)N[C@@H](Cc1ccc(O)cc1)C(=O)N[C@@H](CCCCN)C(=O)N[C@@H](CSSC[C@H](NC(=O)[C@H](CCCCN)NC(=O)[C@H](Cc1ccc(O)cc1)NC(=O)CNC(=O)[C@H](Cc1c[nH]cn1)NC(=O)[C@H](Cc1c[nH]cn1)NC(=O)[C@H](CCCNC(=N)N)NC(=O)[C@H](CCCCN)NC(=O)[C@H](C)NC(=O)[C@H](CC(N)=O)NC(=O)[C@H](CC(C)C)NC(=O)[C@@H](N)Cc1c[nH]c2ccccc12)C(=O)N[C@@H](CCCCN)C(=O)N[C@@H](Cc1ccccc1)C(=O)N[C@@H](Cc1c[nH]cn1)C(N)=O)C(=O)N[C@@H](CCCCN)C(=O)N[C@@H](Cc1ccccc1)C(=O)N[C@@H](Cc1c[nH]cn1)C(N)=O [di-WP2] (I: H-WLNAKRHHGYKCKFH-NH2 / II: H-WLNAKRHHGYKCKFH-NH2; disulfide I:12-II:12 (inferred); N-terminus assumed)	not inhibited	–	99	–
AKRHHGYKRKFH-NH2 [P113]	significantly reduced	increased in a time dependent manner	–	–
